Assay results reported in patent US10766869B2, “Triazoles for the treatment of demyelinating dieases” (Vertex Pharmaceuticals Incorporated, priority 2015, dated 2020).
Where two headings read alike, the source gives them in different places.

Columns and labels:
[1] = system: primary rat mixed cortical cells; assay: In vitro myelination assay (MBP positive myelin strands, fold myelin pixels above background); type: cell-based; settings: Rattus norvegicus, relative to baseline of no added compound; for fold induction at 1 µM: 1.0 μM compound; for fold induction at 10 µM: 10.0 μM compound
Summary of the method: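 Compounds at 1.0 and 10.0 μM were incubated 14 days with dissociated P1 rat cortical cells, which were then fixed and immunostained for MBP. Myelination was scored as fold MBP myelin pixels per well over the no-compound baseline.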

[2] = system: C57BL/6 mice demyelinated with cuprizone; assay: In vivo mouse cuprizone assay (new myelin, MBP positive / MOG negative area); settings: for effect measured as new myelin generated in response to compound treatment compared to control with no added compound: Regimen A (QD or BID for 14 days via oral gavage), various doses; for effect (new myelin generated compared to control): Regimen A, oral gavage
Description: Assays for Detecting and Measuring Remyelination Properties of Compounds In Vivo Mouse Cuprizone Assay:
Cuprizone Feeding Protocol:
2 month old female C57BL/6 mice (Stock Number: 000664) were purchased from Jackson Labs and fed for 4-10 months with a 0.2% cuprizone chow (provided by Research Diets, Product # D10020701R, Description AIN-76A Rodent Diet with 0.2% cuprizone) using cuprizone purchased from Sigma (Cat #14690-100G). Chow was provided ad libitum, and refreshed every 4 days to ensure stability of the cuprizone. Mice were maintained on this diet for 4-10 months before initiation of the experiments.
1) 24 hours prior to the start of dosing, 6 to 10 mice were switched from cuprizone chow to normal chow (Picolab rodent diet 20 EXT IRR 5053, irradiated) without added cuprizone. These mice were maintained on normal chow throughout the course of dosing.
2) 6 to 10 mice per group were randomized into new cages such that mice that were housed in one cage during the cuprizone diet were not housed together in one dose group during the study.
3) Mice were dosed with compound in one of two regimens: Regimen A: mice were dosed QD or BID for 14 days via oral gavage. Regimen B: mice were dosed QD or BID for 14 days via IP injection. However, other dosing schedules and/or routes of administration may also be used.
4) On the last day of dosing, dried blood spots were collected at multiple time points following the last dose. Often this was 30 minutes, 2, 6 and 24 hours following the final dose on day 14 via the tail vein.
Perfusion and Sectioning:
1) The day after the last day of dosing, mice were transcardially perfused with 12 ml of PBS (Sigma, P4417) followed by 20 ml of 3.2% paraformaldehyde in PBS (Electron Microscopy Sciences #15714-S). The brains were removed via standard dissection techniques and each was postfixed in 3.2% paraformaldehyde (20 ml) for 24-48 hours at room temperature in sealed scintillation vials.
2) Serial 50 micron sections were collected through the anterior posterior extent of the brain, from just behind the olfactory bulb, through visual cortex using a vibrating microtome, the V-STAR (described in International Publication No. WO 2013/012799 and U.S. Pat. No. 8,967,024 both of which are incorporated herein by reference in their entirety). Sections were collected in phosphate buffered saline (PBS). Vibratome speed was set to 1.1 mm/s and amplitude was set to 0.8 mm.
3) A series of every 24th section was removed for staining yielding 5 sections per brain.
1) Tissue sections were stained using an automated system for processing blots (hereinafter the “blotinator”) (described in WO2011/087646 and U.S. Pat. Nos. 8,337,754 and 8,679,406 each of which is incorporated herein by reference in its entirety). Brain sections were placed in the blotinator plate and bathed in PBS. The blotinator applied primary antibodies (MOG and MBP together) and Hoechst nuclear stain for 12 hours at room temperature with constant shaking.
The following stains were diluted in blocking buffer (described below):
Hoechst nuclear stain (0.5 mg/ml)(bisBenzimide H 33342 trihydrochloride Sigma #33342).
Myelin basic Protein (MBP) antibody (Abcam Cat # ab7349) was diluted at a 1:750 ratio in blocking buffer).
Myelin Oligodendrocyte Glycoprotein (MOG) (R&D systems Cat # AF2439) was diluted at a 1:250 ratio in blocking buffer.
Antibodies were diluted in blocking buffer, which consisted of 0.3% Triton X-100 (Sigma Cat #234729), 0.02% Sodium Azide (Sigma Cat # S2002) and 8% fetal bovine serum in PBS (Sigma Cat # F2442).
2) The blotinator washed the samples 4 times for 5 minutes each with a wash buffer (0.2% Triton X-100 in PBS).
3) The blotinator applied secondary antibodies diluted in blocking buffer and incubated them for 2 hours with constant shaking.
Alexa 488 donkey anti-rat secondary (Life technologies Cat # A-21208) was diluted at 1:1000 in blocking buffer. […]

[3] = read-out: Fold myelin pixels above background, 1.0 μM
[4] = read-out: Fold myelin pixels above background, 10.0 μM
[5] = read-out: Fold myelin pixels above background

Row | Structure (SMILES) | fold induction at 1 µM [1, 3] | fold induction at 10 µM [1, 4] | effect measured as new myelin generated in response to compound treatment compared to control with no added compound [2] | effect (new myelin generated compared to control) ([2]; 30 mpk) | effect (new myelin generated compared to control) ([2]; 50 mpk) | effect (new myelin generated compared to control) ([2]; 100 mpk) | fold induction at 1 µM [1, 5] | fold induction at 10 µM [1, 5] | effect (new myelin generated compared to control) ([2]; 25 mpk) | effect (new myelin generated compared to control) ([2]; 10 mpk) | effect (new myelin generated compared to control) ([2]; 20 mpk) | effect (new myelin generated compared to control) ([2]; 40 mpk)
1 | CCc1cc(Nc2ncn(-c3cnccn3)n2)cc(N2CCN(C3COC3)CC2)c1 [Compound 48, N-[3-ethyl-5-[4-(oxetan-3-yl)piperazin-1-yl]phenyl]-1-pyrazin-2-yl-1,2,4-triazol-3-amine] | 100 to 1000 | 100 to 1000 | positive effect | positive effect | positive effect | positive effect | – | – | – | – | – | –
2 | Cc1cc(Nc2ncn(-c3cccc(F)c3)n2)cc(N2CCN(C3COC3)CC2)c1 [Compound 406, 1-(3-fluorophenyl)-N-[3-methyl-5-[4-(oxetan-3-yl)piperazin-1-yl]phenyl]-1,2,4-triazol-3-amine] | – | – | positive effect | – | positive effect | – | 1000 to 10000 | ≤ 1 | positive effect | – | – | –
3 | Cc1cc(Nc2ncn(-c3ccccc3)n2)cc(N2CCN(C)CC2)c1 [Compound 247, N-[3-methyl-5-(4-methylpiperazin-1-yl)phenyl]-1-phenyl-1,2,4-triazol-3-amine] | 100 to 1000 | ≤ 1 | positive effect | – | positive effect | – | – | – | positive effect | positive effect | – | –
4 | Cc1cc(Nc2ncn(-c3cc(F)cc(F)c3)n2)cc(N2CC(N3CCOCC3)C2)c1 [Compound 485, 1-(3,5-difluorophenyl)-N-[3-methyl-5-(3-morpholinoazetidin-1-yl)phenyl]-1,2,4-triazol-3-amine] | – | – | positive effect | positive effect | – | – | 10 to 100 | 1 to 10 | – | – | positive effect | –
5 | Cc1cc(Nc2ncn(-c3cc(F)cc(F)c3)n2)nc(N2CCN(C3COC3)CC2)c1 [Compound 331, N-[1-(3,5-difluorophenyl)-1,2,4-triazol-3-yl]-4-methyl-6-[4-(oxetan-3-yl)piperazin-1-yl]pyridin-2-amine] | 1 to 10 | 10 to 100 | positive effect | positive effect | – | – | – | – | – | – | positive effect | positive effect
